In the supplement of paper PMC10307832:

Experiments:
Test in all cases: relative viability (nuclei count vs DMSO), 5 days (fraction); higher = more cells survive
[1] = compound: CCC1=CN=CN=C1N2CCN(CC2)CC3=NC4=C(N3)C=C(C=C4)C(F)(F)F + Cc1cc(Nc2cc(N3CCN(C)CC3)nc(Sc3ccc(NC(=O)C4CC4)cc3)n2)n[nH]1 [Tozasertib] (partner 0.1 µM)
How it was run: (§1)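 Lung cancer cell lines were seeded in 1536-well plates and dosed by pin tool the next day, with either a single drug or a fixed anchor-drug dose combined with five library-drug doses (not always all listed) spaced in √10 steps. Five days later, one step fixed the cells and stained their nuclei (final 0.05% Triton X-100, 1% formaldehyde, 1 ug/ml Hoechst), and nuclei were counted on 4× images. Relative viability is the nuclei count in treated wells divided by the count in vehicle wells, and each value is the median of duplicate plates.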

[2] = compound: CCn1c(-c2nonc2N)nc2cnc(Oc3cccc(NC(=O)c4ccc(OCCN5CCOCC5)cc4)c3)cc21 + COc1cccc2cc(-c3nc([C@H]4CC[C@H](C(=O)O)CC4)n4ncnc(N)c34)[nH]c12 [OSI-027] (partner 0.5 µM)
How it was run: as §1

Mirin + Pictilisib = compound: N=C1NC(=O)/C(=C/c2ccc(O)cc2)S1 [Mirin] + CS(=O)(=O)N1CCN(Cc2cc3nc(-c4cccc5[nH]ncc45)nc(N4CCOCC4)c3s2)CC1 [Pictilisib] (partner 1 µM)
How it was run: as §1

Mirin + Vorinostat = compound: N=C1NC(=O)/C(=C/c2ccc(O)cc2)S1 [Mirin] + O=C(CCCCCCC(=O)Nc1ccccc1)NO [Vorinostat] (partner 1 µM)
How it was run: as §1

| Cell Line | relative viability ([1]; first compound 0.04 µM) | relative viability ([1]; first compound 0.1265 µM) | relative viability ([1]; first compound 0.4 µM) | relative viability ([1]; first compound 1.265 µM) | relative viability ([1]; first compound 4 µM) | relative viability ([2]; first compound 0.04 µM) | relative viability ([2]; first compound 0.1265 µM) | relative viability ([2]; first compound 0.4 µM) | relative viability ([2]; first compound 1.265 µM) | relative viability ([2]; first compound 4 µM) | relative viability (Mirin + Pictilisib; first compound 0.25 µM) | relative viability (Mirin + Pictilisib; first compound 0.7906 µM) | relative viability (Mirin + Pictilisib; first compound 2.5 µM) | relative viability (Mirin + Pictilisib; first compound 7.906 µM) | relative viability (Mirin + Pictilisib; first compound 25 µM) | relative viability (Mirin + Vorinostat; first compound 0.25 µM) | relative viability (Mirin + Vorinostat; first compound 0.7906 µM) | relative viability (Mirin + Vorinostat; first compound 2.5 µM) | relative viability (Mirin + Vorinostat; first compound 7.906 µM) | relative viability (Mirin + Vorinostat; first compound 25 µM) |
| --- | --- | --- | --- | --- | --- | --- | --- | --- | --- | --- | --- | --- | --- | --- | --- | --- | --- | --- | --- | --- |
| HCC-366 | 0.138 | 0.148 | 0.131 | 0.143 | 0.0757 | 1.21 | 0.939 | 0.203 | 0.0538 | 0.0491 | 0.169 | 0.17 | 0.158 | 0.122 | 0.0892 | 0.391 | 0.203 | 0.404 | 0.244 | 0.413 |
| HCC-827 | 0.441 | 0.409 | 0.397 | – | 0.435 | 0.961 | 0.855 | 0.78 | 0.707 | 0.756 | 1.16 | 1.08 | 1.04 | 1.03 | 1.21 | 0.184 | 0.863 | 0.937 | 0.828 | 0.987 |
| HOP-62 | 0.43 | 0.362 | 0.39 | 0.381 | 0.39 | 0.998 | 0.734 | 0.56 | 0.422 | 0.469 | 0.554 | 0.33 | 0.764 | – | 0.496 | 0.669 | 0.527 | 0.679 | 0.411 | 0.603 |
| IA-LM | – | – | – | – | – | – | – | – | – | – | 0.399 | 0.438 | 0.326 | 0.349 | 0.494 | 0.975 | 1.01 | 1.01 | – | 1.17 |
| LC-2-ad | 0.442 | 0.497 | 0.424 | 0.406 | 0.413 | 0.892 | 0.8 | 0.39 | 0.386 | 0.498 | 0.554 | 0.298 | 0.497 | 0.216 | 0.356 | 0.641 | 0.7 | 0.713 | 0.624 | 0.679 |
| LCLC-97TM1 | 0.209 | 0.196 | 0.234 | 0.207 | 0.205 | 0.516 | 0.655 | 0.254 | 0.691 | 0.528 | 0.184 | 0.128 | 0.193 | 0.136 | 0.149 | 0.887 | 0.204 | 0.743 | 0.697 | 0.679 |
| LCLC-103H | 0.536 | 0.504 | 0.488 | 0.463 | 0.398 | 0.522 | 0.448 | 0.231 | 0.312 | 0.323 | 0.63 | 0.532 | 0.536 | 0.714 | 0.739 | 0.774 | 0.695 | 0.79 | 0.793 | 0.868 |
| LK-2 | 0.157 | 0.193 | 0.171 | 0.193 | 0.166 | 0.201 | 0.225 | 0.18 | 0.196 | 0.206 | 0.387 | – | 0.537 | 0.271 | 0.222 | 0.204 | 0.234 | 0.294 | 0.207 | 0.271 |
| LOU-NH91 | 0.625 | 0.68 | 0.669 | 0.585 | 0.657 | 0.741 | 0.561 | 0.44 | 0.426 | 0.471 | 0.499 | – | 0.496 | 0.502 | 0.46 | 0.908 | 0.902 | 1 | 0.843 | 1.16 |
| LU99A | 0.268 | 0.281 | 0.282 | 0.278 | 0.297 | 0.298 | 0.254 | 0.227 | 0.259 | 0.225 | 0.282 | 0.302 | 0.295 | 0.283 | 0.271 | 0.44 | 0.44 | 0.474 | 0.457 | 0.33 |
| LXF-289 | 0.168 | 0.175 | 0.206 | 0.16 | 0.192 | 0.924 | 0.758 | 0.208 | 0.443 | 0.361 | 0.744 | 0.747 | 0.803 | 0.844 | 0.701 | 0.727 | 0.818 | 0.713 | 0.8 | 0.836 |
| NCI-H23 | 0.341 | 0.361 | 0.346 | 0.305 | 0.361 | 0.614 | 0.768 | 0.249 | 0.534 | 0.525 | 0.483 | – | 0.385 | 0.367 | 0.373 | 0.624 | – | 0.565 | 0.54 | 0.601 |
| NCI-H522 | 0.59 | 0.591 | 0.467 | 0.518 | 0.499 | 0.742 | 0.818 | 0.642 | 0.55 | 0.587 | – | – | – | – | – | 1.04 | 1.1 | 0.89 | 0.692 | 0.695 |
| NCI-H1299 | – | – | – | – | – | – | – | – | – | – | 0.811 | 0.823 | 0.787 | 0.688 | 0.602 | – | – | – | – | – |
| NCI-H1563 | – | – | – | – | – | 0.697 | 0.705 | 0.576 | 0.724 | 0.644 | 0.619 | 0.618 | 0.651 | 0.662 | 0.538 | – | – | – | – | – |
| NCI-H1623 | 0.368 | 0.422 | 0.38 | 0.423 | 0.425 | 0.513 | 0.488 | 0.351 | 0.43 | 0.542 | – | – | – | – | – | – | – | – | – | – |
| NCI-H1648 | 0.538 | 0.429 | – | 0.362 | 0.345 | 0.258 | 0.393 | 0.276 | 0.314 | 0.327 | – | – | – | – | – | 0.421 | – | 0.601 | 0.424 | 0.299 |
| NCI-H1703 | – | – | – | – | – | – | – | – | – | – | 0.25 | 0.252 | 0.27 | – | 0.226 | – | – | – | – | – |
| NCI-H1792 | – | – | – | – | – | 0.862 | 0.513 | – | 0.596 | 0.7 | 0.269 | 0.303 | 0.294 | 0.262 | 0.259 | – | – | – | – | – |
| NCI-H2342 | 0.467 | 0.428 | 0.571 | 0.333 | 0.398 | 0.716 | 0.696 | 0.535 | 0.487 | 0.577 | – | – | – | – | – | 0.852 | 0.817 | 0.845 | – | 0.757 |
| SW 900 | 0.538 | 0.585 | 0.497 | 0.548 | 0.523 | 0.553 | 0.557 | 0.421 | 0.559 | 0.578 | – | – | – | – | – | 0.608 | 0.482 | 0.423 | 0.583 | 0.401 |
